# Measurements taken from patent US10364256B2 (GlaxoSmithKline Intellectual Property Development Limited, priority 2015, dated 2019).
# pEC50, pIC50: −log10 of the molar value. Where two headings read alike, the source gives them in different places.
# Columns and labels:
# [1] = biological target: T1, Keap1 Kelch domain (321-609) / TAMRA-labeled 16mer NRF2 peptide (ETGE motif) (Homo sapiens, UniProt Q14145); experiment: NRF2-Keap1 FP Assay (Keap1 Kelch fluorescence polarization); format: binding; settings: 20 nM Keap1 (321-609), 8 nM Tamra labeled peptide
# T1 construct: the Kelch domain (321-609) of Keap1 is used
# How it was run: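 Compound dilutions (3-fold) were incubated 1 hr at room temperature with 20 nM Keap1 Kelch (321-609) and 8 nM TAMRA-labeled ETGE 16mer peptide. Buffer was 50 mM Tris pH 8.0, 100 mM NaCl, 5 mM MgCl2, 1 mM DTT, 2 mM CHAPS, 0.005% BSA. Fluorescence polarization (mP) was normalized to controls and fitted with a four-parameter equation to give pIC50.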
# [2] = biological target: T2, full length Keap1 protein / full length NRF2 protein (Homo sapiens, UniProt Q14145); experiment: NRF2-Keap1 TR-FRET Assay; format: binding; settings: 25 nM Keap1-FlagHis and 50 nM biotin-NRF2 added
# T2 construct: full length NRF2 protein and full length Keap1 protein (Keap1 exists a dimer) are used; His
# Source text: In the NRF2-Keap1 TR-FRET (time-resolved fluorescence resonance energy transfer) assay, full length NRF2 protein and full length Keap1 protein (Keap1 exists a dimer) are used. The assay detects the ability of compound to displace the binding of FlagHis-tagged Keap1 with biotinylated, Avi-tagged NRF2 protein. Biotin-NRF2 binds to streptavidin-europium (a component of the detection mix) and Keap1-FlagHis is recognized by anti-Flag APC (allophycocyanin) antibody (also a component of the detection mix). If binding occurs between the two proteins, there will be an energy transfer from the Eu+3 (donor) at 615 nm to the APC (acceptor) at 665 nm. A potential Keap1 inhibitor will cause a reduction in the TR-FRET signal by interfering with the binding of Keap1 to NRF2.
# One hundred nanoliters of 100× compound dose response curves (serial 3-fold dilutions) in DMSO are stamped using an Echo liquid handling system (Labcyte) into 384-well, low volume, black assay plates (Greiner, #784076), with DMSO in columns 6 and 18. The top concentration of compound is located in columns 1 and 13. All reagents are diluted in assay buffer (50 mM Tris, pH 8.0, 5 mM MgCl2, 100 mM NaCl, 0.005% BSA, 1 mM DTT, and 2 mM CHAPS). The BSA, DTT, and CHAPS are added to the assay buffer on the day of assay. Using a Multidrop Combi (Thermo Electron Corporation) equipped with a metal tip dispenser, 5 ul of 25 nM Keap1-FlagHis protein is added to all wells of the compound plate, with the exception of the wells in column 18. Wells in column 18 receive 5 ul of assay buffer instead. Plates are centrifuged at 500 rpm for 1 minute, covered with a plate lid, and incubated at 37° C. for 2.25 hours. Plates are then removed from the incubator and allowed to cool to RT for 15 minutes. Five microliters of 50 nM biotin-NRF2 protein is then added to all wells of the plates and the plates are spun at 500 rpm for 1 minute, followed by incubating at 4° C. for 1.25 hours. The plates are then allowed to warm to RT for 15 minutes, followed by the addition of 10 ul of detection mix (1 nM Streptavidin Eu+ W1024 and 5 ug/ml mouse anti-DYKDDDDK IgG conjugated to SureLight APC antibody; both from Columbia Biosciences) to all wells. Plates are spun at 500 rpm for 1 minute, incubated for 1 hour at RT, and read on an Envision plate reader using a 320 nm excitation filter and 615 nm and 665 nm emission filters. Compound response (% inhibition) and potency (pIC50) are calculated based on the ratio of the two emissions (665 nm/615 nm) and then the transformed data is normalized against controls in the assay (control 1=1% DMSO in the presence of NRF2 and Keap1 protein and control 2=1% DMSO in the absence of protein). Data analysis is handled using the software package Abase XE (Surrey, United Kingdom). The % inhibition values are calculated from the ratio (transformed) data by the equation: 100−(100*(compound response−average control 2)/(average control 1−average control2)). For calculation of pIC50s, Abase XE uses a four parameter equation. pIC50 is the negative log of the IC50.
# [3] = test system: NQO1 specific enzyme activity in BEAS-2B cells (marker for NRF2 activation); experiment: BEAS-2B NQO1 MTT Assay; format: cell-based; settings: Homo sapiens, compound incubated 48 hours, read-out: EC50 (NQO1 specific enzyme activity induction)
# How it was run: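 BEAS-2B cells treated with compound for 48 h at 37 °C, then lysed; NQO1 activity in lysates measured kinetically by MTT reduction at A570 over 30 min. pEC50 from 3-parameter fit of ΔOD/min versus log concentration; lysate also taken for Cell Titer Glo.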
# T2 sequence (Q14145 whole entry): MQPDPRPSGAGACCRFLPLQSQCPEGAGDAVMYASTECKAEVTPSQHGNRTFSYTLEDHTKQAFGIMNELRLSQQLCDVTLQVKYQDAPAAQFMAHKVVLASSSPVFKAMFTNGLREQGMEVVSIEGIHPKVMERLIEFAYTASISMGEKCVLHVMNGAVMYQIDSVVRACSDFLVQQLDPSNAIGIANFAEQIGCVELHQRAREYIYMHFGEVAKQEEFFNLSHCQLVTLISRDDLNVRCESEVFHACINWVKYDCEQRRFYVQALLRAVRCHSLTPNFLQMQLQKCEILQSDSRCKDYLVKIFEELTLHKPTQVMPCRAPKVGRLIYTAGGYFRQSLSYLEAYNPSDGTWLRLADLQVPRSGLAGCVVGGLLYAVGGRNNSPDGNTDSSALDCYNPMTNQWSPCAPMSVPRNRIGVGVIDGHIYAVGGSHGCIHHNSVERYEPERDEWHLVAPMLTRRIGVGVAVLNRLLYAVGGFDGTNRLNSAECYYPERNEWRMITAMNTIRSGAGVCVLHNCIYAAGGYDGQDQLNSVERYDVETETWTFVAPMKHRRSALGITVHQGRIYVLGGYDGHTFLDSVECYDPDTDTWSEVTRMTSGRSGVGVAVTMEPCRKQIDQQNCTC
# T1 sequence (Q14145 321-609): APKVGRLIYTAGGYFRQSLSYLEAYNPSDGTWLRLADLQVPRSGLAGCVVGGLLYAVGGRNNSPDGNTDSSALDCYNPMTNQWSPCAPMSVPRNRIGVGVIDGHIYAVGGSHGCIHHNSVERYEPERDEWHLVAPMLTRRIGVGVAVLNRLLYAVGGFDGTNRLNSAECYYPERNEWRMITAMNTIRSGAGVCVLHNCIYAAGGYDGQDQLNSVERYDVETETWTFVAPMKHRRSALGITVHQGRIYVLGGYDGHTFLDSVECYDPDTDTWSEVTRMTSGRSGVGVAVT
Compound,pIC50 [1],pIC50 [2],"pEC50 ([3]; BEAS-2B, 48 h)",pEC50 [3]
"CCCC1CCCCN1C(=O)c1cccc(-c2cccc(-n3ncc(C(=O)O)c3C3CC3c3cccnc3)c2)c1 (stereo not drawn) [Example 52, 1-{3-[3-(2-propylpiperidine-1-carbonyl)phenyl]phenyl}-5-[2-(pyridin-3-yl)cyclopropyl]-1H-pyrazole-4-carboxylic Acid]",6.00 to 7.00,5.00 to 6.00,5.00 to 6.00,
"O=C(O)c1cnn(-c2cccc(-c3cccc(C(=O)N4C5CCC4COC5)c3F)c2)c1C1CC1 [Example 32, 5-cyclopropyl-1-[3-(2-fluoro-3-{3-oxa-8-azabicyclo[3.2.1]octane-8-carbonyl}phenyl)phenyl]-1H-pyrazole-4-carboxylic Acid]",6.00 to 7.00,5.00 to 6.00,,5.00 to 6.00
"CCC[C@@H]1CCCCN1C(=O)c1cccc(-c2cc(C)cc(-n3ncc(C(=O)O)c3[C@H]3C[C@@H]3c3cn(C)nn3)c2)c1 (single isomer, unassigned) [Example 156]",6.00 to 7.00,6.00 to 7.00,6.00 to 7.00,
"O=C(O)c1cnn(-c2cccc(-c3cccc(C(=O)N4CCCCCC4)c3)c2)c1C1CC1 [Example 10, 1-{3-[3-(Azepane-1-carbonyl)phenyl]phenyl}-5-cyclopropyl-1H-pyrazole-4-carboxylic Acid]",6.00 to 7.00,5.00 to 6.00,,5.00 to 6.00
"Cn1cc([C@H]2C[C@@H]2c2c(C(=O)O)cnn2-c2cccc(-c3cccc(OCc4cncnc4)c3)c2)nn1 (racemic) [Example 236, 5-((1,2-trans)-2-(1-Methyl-1H-1,2,3-triazol-4-yl)cyclopropyl)-1-(3′-(pyrimidin-5-ylmethoxy)-[1,1′-bipheny1]-3-yl)-1H-pyrazole-4-carboxylic acid]",6.00 to 7.00,5.00 to 6.00,,5.00 to 6.00
"CC(C)Oc1cccc(-c2cccc(-n3ncc(C(=O)O)c3C(F)(F)F)c2)c1 [Example 11, 1-{3-[3-(propan-2-yloxy)phenyl]phenyl}-5-(trifluoromethyl)-1H-pyrazole-4-carboxylic Acid]",5.00 to 6.00,4.00 to 5.00,,5.00 to 6.00
"Cn1cc(CCc2c(C(=O)O)cnn2-c2cccc(-c3cccc(OCC4CCCCC4)c3)c2)nn1 [Example 151, 1-(3-(Cyclohexylmethoxy)-[1,1′-biphenyl]-3-yl)-5-(2-(1-methyl-1H-1,2,3-triazol-4-yl)ethyl)-1H-pyrazole-4-carboxylic acid]",5.00 to 6.00,4.00 to 5.00,,5.00 to 6.00
"CCCC1CCCCN1C(=O)c1cccc(-c2cccc(-n3ncc(C(=O)O)c3CCc3cn(C)nn3)c2)c1F (stereo not drawn) [Example 56, 1-(2′-Fluoro-3′-(2-propylpiperidine-1-carbonyl)-[1,1′-biphenyl]-3-yl)-5-(2-(1-methyl-1H-1,2,3-triazol-4-yl)ethyl)-1H-pyrazole-4-carboxylic Acid]",7.00 to 8.00,6.00 to 7.00,,5.00 to 6.00
"CCC[C@@H]1CCCCN1C(=O)c1cccc(-c2cccc(-n3nc(C)c(C(=O)O)c3C3CC3)c2)c1 [Example 203, (R)-5-Cyclopropyl-3-methyl-1-(3′-(2-propylpiperidine-1-carbonyl)-[1,1′-biphenyl]-3-yl)-1H-pyrazole-4-carboxylic acid]",5.00 to 6.00,5.00 to 6.00,,5.00 to 6.00
"CC(=O)N[C@@H]1CC[C@H](c2c(C(=O)O)cnn2-c2cccc(-c3cccc(OC(C)C)c3F)c2)C1 (racemic) [Example 13, 5-[(cis)-3-Acetamidocyclopentyl]-1-{3-[2-fluoro-3-(propan-2-yloxy)phenyl]phenyl}-1H-pyrazole-4-carboxylic Acid]",5.00 to 6.00,4.00 to 5.00,,5.00 to 6.00
"CC(COc1cccc(-c2cccc(-n3ncc(C(=O)O)c3C3CC3c3cn(C)nn3)c2)c1)C1CCCCC1 (stereo not drawn) [Example 173, 1-(3′-(2-Cyclohexylpropoxy)-[1,1′-biphenyl]-3-yl)-5-(2-(1-methyl-1H-1,2,3-triazol-4-yl)cyclopropyl)-1H-pyrazole-4-carboxylic acid]",7.00 to 8.00,6.00 to 7.00,,7.00 to 8.00
"CC1CCC(C)N1C(=O)c1cccc(-c2cccc(-n3ncc(C(=O)O)c3C3CC3)c2)c1F (stereo not drawn) [Example 24, 5-Cyclopropyl-1-{3-[3-(2,5-dimethylpyrrolidine-1-carbonyl)-2-fluorophenyl]phenyl}-1H-pyrazole-4-carboxylic Acid]",6.00 to 7.00,5.00 to 6.00,,5.00 to 6.00
"O=C(O)c1cnn(-c2cccc(-c3cccc(C(=O)N4CCOC5(CCCC5)C4)c3F)c2)c1C1CC1 [Example 44, 5-cyclopropyl-1-[3-(2-fluoro-3-{6-oxa-9-azaspiro[4.5]decane-9-carbonyl}phenyl)phenyl]-1H-pyrazole-4-carboxylic Acid]",7.00 to 8.00,6.00 to 7.00,,5.00 to 6.00
"O=C(O)c1cnn(-c2cccc(-c3cccc(C(=O)N4CCCCC4)c3F)c2)c1C1CC1 [Example 20, 5-Cyclopropyl-1-{3-[2-fluoro-3-(piperidine-1-carbonyl)phenyl]phenyl}-1H-pyrazole-4-carboxylic Acid]",6.00 to 7.00,5.00 to 6.00,,5.00 to 6.00
"CCC[C@@H]1CCCCN1C(=O)c1cccc(-c2cccc(-n3ncc(C(=O)O)c3CCc3cn(C)nn3)c2)c1 [Example 58, (R)-5-(2-(1-Methyl-1H-1,2,3-triazol-4-yl)ethyl)-1-(3′-(2-propylpiperidine-1-carbonyl)-[1,1′-biphenyl]-3-yl)-1H-pyrazole-4-carboxylic Acid]",7.00 to 8.00,6.00 to 7.00,5.00 to 6.00,
"Cn1cc([C@H]2C[C@@H]2c2c(C(=O)O)cnn2-c2cccc(-c3cccc(OCC(C)(C)C)c3)c2)nn1 (racemic) [Example 226, 5-((1,2-trans)-2-(1-Methyl-1H-1,2,3-triazol-4-yl)cyclopropyl)-1-(3′-(neopentyloxy)-[1,1′-biphenyl]-3-yl)-1H-pyrazole-4-carboxylic acid]",6.00 to 7.00,6.00 to 7.00,,7.00 to 8.00
"CC1(C)CCCN(C(=O)c2cccc(-c3cccc(-n4ncc(C(=O)O)c4C4CC4)c3)c2F)C1 [Example 6, 5-Cyclopropyl-1-{3-[3-(3,3-dimethylpiperidine-1-carbonyl)-2-fluorophenyl]phenyl}-1H-pyrazole-4-carboxylic Acid]",7.00 to 8.00,6.00 to 7.00,,5.00 to 6.00
CN(CC1CC1)C(=O)c1cccc(-c2cccc(-n3ncc(C(=O)O)c3[C@@H]3C[C@H]3c3cn(C)nn3)c2)c1F (racemic) [Example 265],7.00 to 8.00,7.00 to 8.00,,5.00 to 6.00
"O=C(O)c1cnn(-c2cccc(-c3cccc(C4CCCO4)c3)c2)c1C1CC1 (stereo not drawn) [Example 50, 5-Cyclopropyl-1-[3′-(tetrahydro-furan-2-yl)-biphenyl-3-yl]-1H-pyrazole-4-carboxylic Acid]",5.00 to 6.00,< 4.00,,5.00 to 6.00
